Assay results reported in patent publication US5321032A, “Peptide compounds and pharmaceutical compositions thereof” (priority 1990, dated 1994).

Target: T1, substance P receptor (Cavia porcellus, UniProt P30547)
T1 construct: The trachea and lung were removed and homogenized in buffer; from tissue; host or cells: guinea pig trachea and lung, crude membrane fraction
Assay: 3H-Substance P binding to guinea pig crude lung membrane preparation
Conditions: test compound 1 μg/ml; 3H-substance P 1 nM; crude lung membrane fractions, 4° C., 30 minutes
Protocol: 1. Binding with ^3 H-P substance receptor
(a) Crude lung membrane preparation
Male Hartly strain guinea pigs were sacrificed by decapitation, The trachea and lung were removed and homogenized in buffer (0.25M sucrose, 50 mM Tris-HCl pH 7.5, 0.1 mM MEDTA) by using Polytoron (Kinematica). The homogenate was centrifuged (1000 x g, 10 min) to remove tissue clumps and the supernatant was centrifuges (14000 x g, 20 min) to yield pellets. The pellets were resuspended in buffer (5 mM Tris-HC1 pH 7.5), homofenized with a teflon homogenizer and centrifuged (14000 x g, 20 min) to yield pellets which were referred to crude membrane fractions. The obtained pallets were stored at -70 ° C. until use.
(b) ^3 H-Substance P binding to preparation membrane
Frozen crude membrane fractions were thawed and resuspended in Medium 1 (50 mM Tris-HC1 pH 7.5, 5 mM MnCl2, 0.02% BSA, 2 μg/ml chymostatin, 4 μg/ml leupeptin, 40 μg/ml bacitaracin). ^3 H-substance P (1 nM ) was incubated with 100 μl of the membrane preparation in Medium 1 at 4° C. for 30 minutes in a final volume of 500 μl. At the end of the incubation over a Whatman GF/B glass filter (pretreated with 0.1% polyethylene imine for 3 hours prior to use) under aspiration. The filters werre then washed four times with 5 ml of the buffer (50 mM Tris-HCl, pH 7.5). The radioactivity was counted in 5 ml of Aquazol-2 in Packerd scintillation counter (Packerd TRI-CARB 4530).

T1 sequence (P30547 whole entry): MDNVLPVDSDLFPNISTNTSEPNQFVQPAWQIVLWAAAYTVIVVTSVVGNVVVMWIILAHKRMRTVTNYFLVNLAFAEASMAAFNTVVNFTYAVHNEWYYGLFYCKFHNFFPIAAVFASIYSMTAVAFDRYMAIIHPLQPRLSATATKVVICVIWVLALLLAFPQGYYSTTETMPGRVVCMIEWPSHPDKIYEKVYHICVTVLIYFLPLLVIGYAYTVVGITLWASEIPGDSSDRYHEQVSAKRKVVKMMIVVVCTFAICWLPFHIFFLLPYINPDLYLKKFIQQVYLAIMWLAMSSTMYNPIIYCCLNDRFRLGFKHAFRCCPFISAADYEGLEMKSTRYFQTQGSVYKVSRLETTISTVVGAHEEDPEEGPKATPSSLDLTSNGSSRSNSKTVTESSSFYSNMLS

| Compound | suppression rate (%) |
| --- | --- |
| CC(=O)N[C@H](C(=O)N[C@H](Cc1cn(C=O)c2ccccc12)C(=O)N[C@@H](Cc1cccs1)C(=O)N(C)Cc1ccccc1)[C@@H](C)O [(a)] | 100% |
| CC(=O)N[C@H](C(=O)N[C@H](Cc1cn(C=O)c2ccccc12)C(=O)N1Cc2ccccc2C[C@@H]1C(=O)N(C)Cc1ccccc1)[C@@H](C)O [(b)] | 99% |
| CC(=O)N[C@H](C(=O)N[C@H](Cc1cn(C=O)c2ccccc12)C(=O)N(C)[C@@H](Cc1ccccc1)C(=O)N(C)Cc1ccccc1)[C@@H](C)O [(c)] | 96% |
